Assay results published in patent US20260139328A1, “NOVEL MICROBIAL GENOTOXINS” (Yale University, priority 2022, published 2026).

Legend:
HeLa cells [1] = system: HeLa cells
[2] = system: circular pUC19 plasmid DNA
[3] = NMR analysis of synthetic indolimine-214 after preparative HPLC purification; conditions: upon preparative HPLC purification; reversible reaction in water
HeLa cells [4] = assay: alkaline comet unwinding assay in HeLa cells; assay type: cell-based, human; conditions: 100 μg/ml synthetic compounds, 5-6 h
Procedure: To assess DNA damage using chemical extracts of bacterial metabolites, HeLa, MC38 or HCT116 cells were treated with 5 mg/ml ethyl-acetate extracts diluted in culture medium supplemented with 10 mM HEPES for 4-6 h.
To assess DNA damage using pure compounds, HeLa cells were treated with 100 µg/ml cisplatin, 100 μg/ml, 25 μg/ml, or 10 μg/ml indolimine-214 (1), compound 2, indolimine-200 (3), indolimine-248 (4) or 0.1% DMSO diluted in culture medium supplemented with 10 mM HEPES for 4-6 h.
After treatment with ethyl-acetate extracts or pure synthetic compounds, HeLa cells were washed with PBS and collected via trypsinization. DNA damage was assessed via alkaline single cell gel electrophoresis using the Trevigen Comet Assay kit (Trevigen, Inc.) according to the manufacturer's instructions. Briefly, cells were embedded in Comet LMAgarose and loaded onto CometSlide™. Slides were placed flat at 4° C. in the dark for 10 min and then immersed overnight in Lysis Solution at 4° C. […] Comet images were acquired using a Leica DMRB fluorescence microscope. Tail DNA % (Tail DNA content as a percentage of Comet DNA content) and Tail moment (Tail length multiplied by Tail DNA %) were analyzed with OpenComet v1.3.1., and 20-50 comets were recorded for each sample.

| SMILES | γ-H2AX in HeLa cells (HeLa cells [1]) | genotoxicity (γ-H2AX, HeLa) in relation to purity (HeLa cells [1]) | DNA damage of circular pUC19 plasmid [2] | degradation into the two starting materials [3] | tailing in alkaline comet unwinding assay (HeLa cells [4]) |
| --- | --- | --- | --- | --- | --- |
| CC(C)C/N=C/c1c[nH]c2ccccc12 [indolimine-200 (3)] | triggered increased 7-H2AX in HeLa cells in a dose-dependent manner | – | – | – | – |
| C(=N\CCc1ccccc1)/c1c[nH]c2ccccc12 [indolimine-248 (4)] | triggered increased 7-H2AX in HeLa cells in a dose-dependent manner | – | – | – | – |
| CC(C)CCN=Cc1c[nH]c2ccccc12 [indolimine-214 (1)] | triggered increased γ-H2AX in a dose-dependent manner | correlated directly with its purity | neither synthetic indolimine-214 (1) nor compound 2 alone (up to 1 mg/ml) induced DNA damage | ≥ 20% | induced tailing |
